Laboratory results published in ChEMBL document CHEMBL5226390, “Synthesis and Structure-Activity Analysis of Icaritin Derivatives as Potential Tumor Growth Inhibitors of Hepatocellular Carcinoma Cells” (J Nat Prod, 2023).
The source made the active and inactive calls. The rule behind the calls is not given here.

Legend:
SMMC-7721 [1] = assay: Induction of apoptosis in human SMMC-7721 cells assessed as early apoptotic cells at 2 uM incubated for 48 hrs by AnnexinV-FITC/PI staining based flow cytometry (reference value: 1.13%); type: functional
SMMC-7721 [2] = assay: Antiproliferative activity against human SMMC-7721 cells assessed as reduction in cell viability incubated for 48 hrs by MTT assay; type: functional, cell-based; conditions: Homo sapiens, SMMC-7721, 48 h; read-out: IC50
HepG2 [3] = assay: Induction of cell cycle arrest in human HepG2 cells assessed as accumulation of cells at G0/G1 phase at 4 uM incubated for 48 hrs by PI staining based flow cytometry (reference value: 64.11%); type: functional
HepG2 [4] = assay: Induction of cell cycle arrest in human HepG2 cells assessed as accumulation of cells at G2/M phase at 4 uM incubated for 48 hrs by PI staining based flow cytometry (reference value: 17.89%); type: functional
HepG2 [5] = assay: Induction of cell cycle arrest in human HepG2 cells assessed as accumulation of cells at S phase at 2 uM incubated for 48 hrs by PI staining based flow cytometry (reference value: 18%); type: functional
SMMC-7721 [6] = assay: Induction of cell cycle arrest in human SMMC-7721 cells assessed as downregulation of p34 protein expression at 2 to 8 uM incubated for 48 hrs by western blot analysis; type: functional, cell-based; conditions: dose 2-8 µM
SMMC-7721 [7] = assay: Induction of cell cycle arrest in human SMMC-7721 cells assessed as accumulation of cells at G0/G1 phase at 4 uM incubated for 48 hrs by PI staining based flow cytometry (reference value: 59.57%); type: functional
HepG2 [8] = assay: Induction of apoptosis in human HepG2 cells assessed as early apoptotic cells at 2 uM incubated for 48 hrs by AnnexinV-FITC/PI staining based flow cytometry (reference value: 3.41%); type: functional
HepG2 [9] = assay: Induction of apoptosis in human HepG2 cells assessed as viable cells at 8 uM incubated for 48 hrs by AnnexinV-FITC/PI staining based flow cytometry (reference value: 91.1%); type: functional; conditions: read-out: Activity
SMMC-7721 [10] = assay: Induction of apoptosis in human SMMC-7721 cells assessed as chromatin condensation and fragmentation at 2 to 8 uM incubated for 48 hrs by Hoechst 33258 staining based fluorescence microscopic analysis; type: functional, cell-based; conditions: dose 2-8 µM
HepG2 [11] = assay: Induction of cell cycle arrest in human HepG2 cells assessed as accumulation of cells at G0/G1 phase at 2 uM incubated for 48 hrs by PI staining based flow cytometry (reference value: 64.11%); type: functional
HepG2 [12] = assay: Induction of cell cycle arrest in human HepG2 cells assessed as downregulation of Cdc2 protein expression at 2 to 8 uM incubated for 48 hrs by western blot analysis; type: functional, cell-based; conditions: dose 2-8 µM
SMMC-7721 [13] = assay: Induction of apoptosis in human SMMC-7721 cells assessed as early apoptotic cells at 8 uM incubated for 48 hrs by AnnexinV-FITC/PI staining based flow cytometry (reference value: 1.13%); type: functional
SMMC-7721 [14] = assay: Induction of cell cycle arrest in human SMMC-7721 cells assessed as accumulation of cells at G0/G1 phase at 2 uM incubated for 48 hrs by PI staining based flow cytometry (reference value: 59.57%); type: functional
HepG2 [15] = assay: Induction of apoptosis in human HepG2 cells assessed as early apoptotic cells at 4 uM incubated for 48 hrs by AnnexinV-FITC/PI staining based flow cytometry (reference value: 3.41%); type: functional
HepG2 [16] = assay: Induction of apoptosis in human HepG2 cells assessed as necrotic cells at 2 uM incubated for 48 hrs by AnnexinV-FITC/PI staining based flow cytometry (reference value: 2.22%); type: functional
HepG2 [17] = assay: Induction of cell cycle arrest in human HepG2 cells assessed as accumulation of cells at G2/M phase at 2 uM incubated for 48 hrs by PI staining based flow cytometry (reference value: 17.89%); type: functional
SMMC-7721 [18] = assay: Induction of cell cycle arrest in human SMMC-7721 cells assessed as accumulation of cells at S phase at 2 uM incubated for 48 hrs by PI staining based flow cytometry (reference value: 24.94%); type: functional
SMMC-7721 [19] = assay: Induction of cell cycle arrest in human SMMC-7721 cells assessed as downregulation of CDK4 protein expression at 2 to 8 uM incubated for 48 hrs by western blot analysis; type: functional, cell-based; conditions: dose 2-8 µM
HepG2 [20] = assay: Antiproliferative activity against human HepG2 cells assessed as reduction in cell viability incubated for 48 hrs by MTT assay; type: functional, cell-based; conditions: HepG2, 48 h
SMMC-7721 [21] = assay: Induction of cell cycle arrest in human SMMC-7721 cells assessed as accumulation of cells at G2/M phase at 8 uM incubated for 48 hrs by PI staining based flow cytometry (reference value: 15.49%); type: functional
SMMC-7721 [22] = assay: Induction of cell cycle arrest in human SMMC-7721 cells assessed as accumulation of cells at S phase at 4 uM incubated for 48 hrs by PI staining based flow cytometry (reference value: 24.94%); type: functional
HepG2 [23] = assay: Induction of apoptosis in human HepG2 cells assessed as increase in number of detached cells with fewer cells at 2 to 8 uM incubated for 48 hrs by phase contrast microscopy; type: functional, cell-based; conditions: dose 2-8 µM
SMMC-7721 [24] = assay: Induction of apoptosis in human SMMC-7721 cells assessed as viable cells at 8 uM incubated for 48 hrs by AnnexinV-FITC/PI staining based flow cytometry (reference value: 85.1%); type: functional; conditions: read-out: Activity
SMMC-7721 [25] = assay: Induction of apoptosis in human SMMC-7721 cells assessed as increase in number of detached cells with fewer cells at 2 to 8 uM incubated for 48 hrs by phase contrast microscopy; type: functional, cell-based; conditions: dose 2-8 µM
Hep 3B2 = assay: Antiproliferative activity against human Hep3B cells assessed as reduction in cell viability incubated for 48 hrs by MTT assay; type: functional, cell-based

Question: Which results are given for `COc1ccc(-c2oc3c(CC=C(C)C)c(OCCN4CCCC4)cc(O)c3c(=O)c2O[C@H]2O[C@H](C)[C@@H](O)[C@H](O)[C@@H]2O)cc1`?
Answer: Activity (SMMC-7721 [1]): 1.73%; IC50 (SMMC-7721 [2]): 3.1 µM; Activity (HepG2 [3]): 80.03%; Activity (HepG2 [4]): 10.7%; Activity (HepG2 [5]): 13.7%; Activity (SMMC-7721 [6]): Active; Activity (SMMC-7721 [7]): 65.57%; Activity (HepG2 [8]): 1.52%; viability at 8 µM (HepG2 [9]): 62.2%; Activity (SMMC-7721 [10]): Active; Activity (HepG2 [11]): 68.79%; Activity (HepG2 [12]): Active; Activity (SMMC-7721 [13]): 3.28%; Activity (SMMC-7721 [14]): 63.01%; Activity (HepG2 [15]): 5.14%; Activity (HepG2 [16]): 8.93%; Activity (HepG2 [17]): 17.51%; Activity (SMMC-7721 [18]): 23.71%; Activity (SMMC-7721 [19]): Active; IC50 (HepG2 [20]): 7.6 µM; Activity (SMMC-7721 [21]): 8.88%; Activity (SMMC-7721 [22]): 19.6%; Activity (HepG2 [23]): Active; viability at 8 µM (SMMC-7721 [24]): 66.2%; Activity (SMMC-7721 [25]): Active; IC50 (Hep 3B2): 3.9 µM
